Measurements from patent US10513519B2, “Solid forms of (1S,4S)-4-(2-(((3S,4R)-3-fluorotetrahydro-2H-pyran-4-yl)amino)-8-((2,4,6-trichlorophenyl)amino)-9H-purin-9-yl)-1-methylcyclohexane-1-carboxamide and methods of their use” (Signal Pharmaceuticals, LLC, priority 2016, dated 2019).

Test system: cancer cell lines
Test: Multiplexed cytotoxicity assay: cell proliferation (relative cell count IC50, GI50)
Format: cell-based
Description: (§1) Cells are grown in RPMI1640, 10% FBS, 2 mM L-alanyl-L-Glutamine, 1 mM Na pyruvate or a special medium in a humidified atmosphere of 5% CO2 at 37° C. Cells are seeded into 384-well plates and incubated in a humidified atmosphere of 5% CO2 at 37° C. Compounds are added 24 h post cell seeding. At the same time, a time zero untreated cell plate is generated. After a 72 hour incubation period, cells are fixed and stained with fluorescently labeled antibodies and nuclear dye to allow visualization of nuclei, apoptotic cells and mitotic cells. Apoptotic cells are detected using an anti-active caspase-3 antibody. Mitotic cells are detected using an anti phospho-histone-3 antibody. Compounds are serially diluted 3.16-fold and assayed over 10 concentrations in a final assay concentration of 0.1% DMSO from the highest test concentration of 10 μM. Automated fluorescence microscopy was carried out using a Molecular Devices ImageXpress Micro XL high-content imager, and images are collected with a 4× objective.
(§2) Sixteen-bit TIFF images are acquired and analyzed with MetaXpress 5.1.0.41 software. Cell proliferation is measured by the signal intensity of the incorporated nuclear dye. The cell proliferation assay output is referred to as the relative cell count. To determine the cell proliferation end point, the cell proliferation data output is transformed to percentage of control (POC) using the following formula: POC=relative cell count(compound wells)/relative cell count(vehicle wells)×100
(§3) GI50 is the concentration needed to reduce the observed growth by half. This is the concentration that inhibits the growth to the level midway between growth in untreated cells and the number of cells seeded in the well (Time zero value). The IC50 values are calculated using nonlinear regression to fit data to a sigmoidal 4 point, 4 parameter One-Site dose response model, where: y(fit)=A+[(B−A)/(1+((C/x)^D))].
as §1, with “In another experiment, cells were grown” for “Cells are grown”, “Cells were” for “Cells are”, “Compounds were” for “Compounds are”, “plate was” for “plate is”, “cells were” for “cells are”, “images were” for “images are”
as §2, with “images were” for “images are”, “proliferation was” for “proliferation is”, “output was” for “output is”
as §3, with “GI50 refers to” for “GI50 is”, “This corresponds to” for “This is”, “values were” for “values are”

[1] = 72 h, G292CLONEA141B1, Soft Tissue, Osteosarcoma
[2] = 72 h, HOS, Soft Tissue, Osteosarcoma
[3] = 72 h, HS729, Soft Tissue, Sarcoma
[4] = 72 h, HS821T, Soft Tissue, Sarcoma
[5] = 72 h, HS888SK, Soft Tissue, Osteosarcoma
[6] = 72 h, IM9, Hematopoietic and lymphoid, Myeloma
[7] = 72 h, TE125T, Soft Tissue, Sarcoma
[8] = 72 h, U266B1, Hematopoietic and lymphoid, Myeloma
[9] = 72 h, VAESBJ, Soft Tissue, Sarcoma
[10] = BC1 (Hematopoietic and lymphoid, Lymphoma)
[11] = BCP-1, BCP1 (Hematopoietic and lymphoid, Lymphoma)
[12] = BM-1604, 72 h, BM1604, Prostate, 72 h
[13] = CEM/C1, CEMC1 (Hematopoietic and lymphoid, Leukemia)
[14] = CML-T1, CMLT1 (Hematopoietic and lymphoid, Leukemia)
[15] = D341 Med, D341MED (CNS, Medulloblastoma)
[16] = DB (Hematopoietic and lymphoid, Lymphoma)
[17] = EB2 (Hematopoietic and lymphoid, Lymphoma)
[18] = EB3 (Hematopoietic and lymphoid, Lymphoma)
[19] = EM2 (Hematopoietic and lymphoid, Leukemia)
[20] = H9 (Hematopoietic and lymphoid, Lymphoma)
[21] = HS611T (Hematopoietic and lymphoid, Lymphoma)
[22] = HT (Hematopoietic and lymphoid, Lymphoma)
[23] = HUH-6-clone5, HUH6CLONE5 (Liver)
[24] = Homo sapiens, 22Rv1, 72 h, 22RV1, Prostate, 72 h
[25] = Homo sapiens, 639-V, 639V (Bladder)
[26] = Homo sapiens, 647-V, 647V (Bladder)
[27] = Homo sapiens, 769-P, 769P (Kidney)
[28] = Homo sapiens, 786-0, 786O (Kidney)
[29] = Homo sapiens, A101D, A101D (Skin, Melanoma)
[30] = Homo sapiens, A 172, A172 (CNS, Glioma)
[31] = Homo sapiens, A204, 72 h, A204, Soft Tissue, Sarcoma, 72 h
[32] = Homo sapiens, A253, A253 (Head and Neck)
[33] = Homo sapiens, A498, A498 (Kidney)
[34] = Homo sapiens, A549, 72 h, A549, Lung, NSCLC, 72 h
[35] = Homo sapiens, A673, 72 h, A673, Soft Tissue, Sarcoma, 72 h
[36] = Homo sapiens, A704, A704 (Kidney)
[37] = Homo sapiens, A2058, A2058 (Skin, Melanoma)
[38] = Homo sapiens, A-375, A375 (Skin, Melanoma)
[39] = Homo sapiens, A-427, 72 h, A427, Lung, NSCLC, 72 h
[40] = Homo sapiens, A-431, A431 (Skin, Carcinoma)
[41] = Homo sapiens, ACHN, ACHN (Kidney)
[42] = Homo sapiens, AN3-CA, 72 h, AN3CA, Female GU, Uterus
[43] = Homo sapiens, ARH-77, 72 h, ARH77, Hematopoietic and lymphoid, Myeloma, 72 h
[44] = Homo sapiens, ASPC1, 72 h, ASPC1, Pancreas, 72 h
[45] = Homo sapiens, AU565, AU565 (Breast)
[46] = Homo sapiens, BE(2)-C, 72 h, BE2C, CNS, Neuroblastoma
[47] = Homo sapiens, BFTC-905, BFTC905 (Bladder)
[48] = Homo sapiens, BHT-101, 72 h, BHT101, Endocrine, Thyroid, 72 h
[49] = Homo sapiens, BPH-1, 72 h, BPH1, Prostate, 72 h
[50] = Homo sapiens, BT-20, BT20 (Breast)

C[C@]1(C(N)=O)CC[C@@H](n2c(Nc3c(Cl)cc(Cl)cc3Cl)nc3cnc(N[C@@H]4CCOC[C@H]4F)nc32)CC1 [Compound 1, cis-4-[2-{[(3S,4R)-3-fluorooxan-4-yl]amino}-8-(2,4,6-trichloroanilino)-9H-purin-9-yl]-1-methylcyclohexane-1-carboxamide]
GI50 (5637 (Bladder)): 6850 nM | IC50 (5637 (Bladder)): 9770 nM | GI50 (72 h, AGS, Stomach): 8.6 nM | IC50 (72 h, AGS, Stomach): 9.8 nM | GI50 [1]: 27.2 nM | IC50 [1]: 49.3 nM | GI50 [2]: 2570 nM | IC50 [2]: 3690 nM | GI50 (72 h, HS229T, Lung, NSCLC): 415 nM | IC50 (72 h, HS229T, Lung, NSCLC): > 10000 nM | GI50 [3]: 540 nM | IC50 [3]: > 10000 nM | GI50 [4]: 169 nM | IC50 [4]: > 10000 nM | GI50 [5]: 111 nM | IC50 [5]: > 10000 nM | GI50 [6]: 91.1 nM | IC50 [6]: 143 nM | GI50 (72 h, JAR, Female GU, Placenta): 3170 nM | IC50 (72 h, JAR, Female GU, Placenta): 3210 nM | GI50 (72 h, KLE, Female GU, Uterus): > 10000 nM | IC50 (72 h, KLE, Female GU, Uterus): > 10000 nM | GI50 (72 h, PA1, Female GU, Ovary): 471 nM | IC50 (72 h, PA1, Female GU, Ovary): 2620 nM | GI50 (72 h, PC3, Prostate): 7820 nM | IC50 (72 h, PC3, Prostate): 8540 nM | GI50 (72 h, RD, Soft Tissue, Sarcoma): 36.7 nM | IC50 (72 h, RD, Soft Tissue, Sarcoma): 44.3 nM | GI50 (72 h, SKPNDW, Stomach): 3600 nM | IC50 (72 h, SKPNDW, Stomach): > 10000 nM | GI50 [7]: 1090 nM | IC50 [7]: > 10000 nM | GI50 (72 h, TT, Endocrine, Thyroid): 86.3 nM | IC50 (72 h, TT, Endocrine, Thyroid): > 10000 nM | GI50 [8]: 13.3 nM | IC50 [8]: 109 nM | GI50 [9]: 336 nM | IC50 [9]: 580 nM | GI50 (A7 (Skin, Melanoma)): 1720 nM | IC50 (A7 (Skin, Melanoma)): 7270 nM | GI50 (A388 (Head and Neck)): 422 nM | IC50 (A388 (Head and Neck)): 1120 nM | GI50 [10]: > 10000 nM | IC50 [10]: > 10000 nM | GI50 [11]: 20.5 nM | IC50 [11]: 79.7 nM | GI50 [12]: 141 nM | IC50 [12]: 401 nM | GI50 (C4I (Female GU, Cervix)): > 10000 nM | IC50 (C4I (Female GU, Cervix)): > 10000 nM | GI50 (C32 (Skin, Melanoma)): 28.9 nM | IC50 (C32 (Skin, Melanoma)): 111 nM | GI50 (C32TG, C32TG (Skin, Melanoma)): 40.8 nM | IC50 (C32TG, C32TG (Skin, Melanoma)): 109 nM | GI50 [13]: > 10000 nM | IC50 [13]: > 10000 nM | GI50 [14]: 149 nM | IC50 [14]: > 10000 nM | GI50 [15]: 10000 nM | IC50 [15]: 21.9 nM | GI50 [16]: 13.1 nM | IC50 [16]: > 10000 nM | GI50 (DKMG (CNS, Glioma)): 20.7 nM | IC50 (DKMG (CNS, Glioma)): 126 nM | GI50 [17]: 389 nM | IC50 [17]: 550 nM | GI50 [18]: 1630 nM | IC50 [18]: 2150 nM | GI50 [19]: 48.1 nM | IC50 [19]: 93.6 nM | GI50 (H4 (CNS, Glioma)): 758 nM | IC50 (H4 (CNS, Glioma)): 943 nM | GI50 [20]: 23.2 nM | IC50 [20]: 39 nM | GI50 (HLE (Liver)): 683 nM | IC50 (HLE (Liver)): 1040 nM | GI50 (HLF (Liver)): 4760 nM | IC50 (HLF (Liver)): 6470 nM | GI50 [21]: 10.6 nM | IC50 [21]: 12.3 nM | GI50 (HS688AT (Skin, Melanoma)): 82.2 nM | IC50 (HS688AT (Skin, Melanoma)): > 10000 nM | GI50 (HS852T (Skin, Melanoma)): 56.4 nM | IC50 (HS852T (Skin, Melanoma)): 715 nM | GI50 (HS895T (Skin, Melanoma)): > 10000 nM | IC50 (HS895T (Skin, Melanoma)): > 10000 nM | GI50 (HS934T (Skin, Melanoma)): 5.2 nM | IC50 (HS934T (Skin, Melanoma)): > 10000 nM | GI50 (HS936TC1 (Skin, Melanoma)): 18.4 nM | IC50 (HS936TC1 (Skin, Melanoma)): 25.8 nM | GI50 (HT3 (Female GU, Cervix)): 856 nM | IC50 (HT3 (Female GU, Cervix)): 3210 nM | GI50 [22]: 8300 nM | IC50 [22]: > 10000 nM | GI50 [23]: 145 nM | IC50 [23]: 354 nM | GI50 [24]: 2660 nM | IC50 [24]: 5580 nM | GI50 [25]: 184 nM | IC50 [25]: 206 nM | GI50 [26]: 6930 nM | IC50 [26]: 7820 nM | GI50 [27]: 194 nM | IC50 [27]: 255 nM | GI50 [28]: 2040 nM | IC50 [28]: 6920 nM | GI50 [29]: 42.4 nM | IC50 [29]: 81.5 nM | GI50 [30]: 64.9 nM | IC50 [30]: 139 nM | GI50 [31]: > 10000 nM | IC50 [31]: > 10000 nM | GI50 [32]: 171 nM | IC50 [32]: > 10000 nM | GI50 [33]: 522 nM | IC50 [33]: 808 nM | GI50 [34]: 102 nM | IC50 [34]: 128 nM | GI50 [35]: 3750 nM | IC50 [35]: 3870 nM | GI50 [36]: > 10000 nM | IC50 [36]: > 10000 nM | GI50 [37]: 212 nM | IC50 [37]: 288 nM | GI50 [38]: 6.5 nM | IC50 [38]: 7.2 nM | GI50 [39]: 47.5 nM | IC50 [39]: 76.3 nM | GI50 [40]: 228 nM | IC50 [40]: 311 nM | GI50 [41]: 306 nM | IC50 [41]: 550 nM | GI50 [42]: 713 nM | IC50 [42]: 7030 nM | GI50 [43]: > 10000 nM | IC50 [43]: > 10000 nM | GI50 [44]: 30.8 nM | IC50 [44]: > 10000 nM | GI50 [45]: 8150 nM | IC50 [45]: 8770 nM | GI50 [46]: 146 nM | IC50 [46]: 210 nM | GI50 [47]: 51.5 nM | IC50 [47]: 54.6 nM | GI50 [48]: 37.6 nM | IC50 [48]: 41.2 nM | GI50 [49]: 57.8 nM | IC50 [49]: 67.5 nM | GI50 [50]: 8360 nM | IC50 [50]: > 10000 nM
